Assays:
Karpas299, ALCL [1] = experiment: In vitro assays - tubulysin free drugs, CellTiter-Glo growth inhibition; assay type: cell-based; conditions: Homo sapiens, KARPAS-299, 96 h, free drug
Description: (§1) In vitro assays. Cells cultured in log-phase growth were seeded for 24 h in 96-well plates containing 150 μL RPMI 1640 supplemented with 20% FBS. Serial dilutions of antibody-drug conjugates in cell culture media were prepared at 4× working concentrations; 50 μL of each dilution was added to the 96-well plates. Following addition of ADC, cells were incubated with test articles for 4 d at 37° C. After 96 h, growth inhibition was assessed by CellTiter-Glo® (Promega, Madison, WI) and luminescence was measured on a plate reader. The IC50 value, determined in triplicate, is defined here as the concentration that results in a 50% reduction in cell growth relative to untreated controls.
(§2) In vitro assays—tubulysin free drugs. Cells were treated for 96 hours with tubulysin ether analogs (40-42) or tubulysin M (7), then assessed for viability as described in the methods.
(§3) The tubulysin ester analogs (133-137) and unsaturated ether analogs (176-179) were tested in vitro for potency relative to tubulysin M (7), following a 96 hour exposure. As shown by IC50 values (nM) of Table 2, Tubulysin esters 133-136 performed comparably to tubulysin M, with similar potencies across of the cell lines.

L428, MDR + HL [2] = experiment: as above; assay type: cell-based; conditions: Homo sapiens, L-428, 96 h, free drug
Description: as §1, §2, §3

HL60, AML = experiment: as above; assay type: cell-based; conditions: Homo sapiens, HL-60, 96 h, free drug
HL60/RV, MDR + AML = experiment: as above; assay type: cell-based; conditions: Homo sapiens, HL-60, 96 h, free drug
L540cy, HL [3] = experiment: as above; assay type: cell-based; conditions: L540cy, 96 h, free drug
[4] = system: Karpas299, L540cy, L428, HL60, HL60/RV cell lines; experiment: In vitro assays - tubulysin free drugs, statements across the cell line panel; assay type: cell-based; conditions: for potency relative to tubulysin M (7), in words: Table 2 cell lines, 96 hour exposure
Description: as §1, §2
The ethyl ether and tubulysin M maintained the highest level of potency in the context of MDR+L428 and HL60/RV cell lines.
as §3

Karpas299, ALCL [5] = experiment: In vitro assays - tubulysin ADCs (cAC10, anti-CD30); assay type: cell-based; conditions: Table 4; cAC10 ADCs DAR 8, 96 h
DEL/BVR, MDR + ALCL = conditions: Table 4; cAC10 ADCs DAR 8, 96 h
Description: (§4) In vitro assays. Cells cultured in log-phase growth were seeded for 24 h in 96-well plates containing 150 μL RPMI 1640 supplemented with 20% FBS. Serial dilutions of antibody-drug conjugates in cell culture media were prepared at 4× working concentrations; 50 μL of each dilution was added to the 96-well plates. […] After 96 h, growth inhibition was assessed by CellTiter-Glo® (Promega, Madison, WI) and luminescence was measured on a plate reader.
(§5) In vitro assays—tubulysin ADCs. ADCs were prepared by t Ell reduction of interchain disulfides to reveal 8-conjugatable cysteines/antibody that were alkylated through Michael addition with the maleimide-containing Drug Linker compounds. […] conjugates hearing quaternized tubulysin ethers with and without a PEG12 side-chain were compared to their tubulysin M analogs.
(§6) Several hydrophilic linker constructs incorporating quaternized tubulysin M were prepared and evaluated in vitro; the results are shown in Table 5. The data (IC50 values in ng/mL) indicate that Conjugates prepared from Drug Linker compounds having quaternized tubulysin M linked via a hydrophilic ValGlu dipeptide with (95) or without (91) a PEG12 side chain, or linked via a hydrophilic glucuronide (82) provide ADCs that are equipotent to the ValAla comparator (15).

L428, MDR + HL [6] = conditions: Table 4; cAC10 ADCs DAR 8, 96 h
Description: as §4, §5, §6

L540cy, HL [7] = conditions: Table 4; cAC10 ADCs DAR 8, 96 h
Description: as §4, §5, §6

DEL, ALCL = conditions: Table 4; cAC10 ADCs DAR 8, 96 h
Description: as §4, §5, §6

Structure (SMILES)	IC50, Karpas299, ALCL (Karpas299, ALCL [5])	IC50, DEL/BVR, MDR + ALCL (DEL/BVR, MDR + ALCL)	IC50, L428, MDR + HL (L428, MDR + HL [6])	IC50, L540cy, HL (L540cy, HL [7])	IC50 (Karpas299, ALCL [1]; Table 2, 96 hour exposure)	IC50 (L428, MDR + HL [2]; Table 2, 96 hour exposure)	IC50 (HL60, AML; Table 2, 96 hour exposure)	IC50 (HL60/RV, MDR + AML; Table 2, 96 hour exposure)	IC50 (L540cy, HL [3]; Table 2, 96 hour exposure)	potency relative to tubulysin M (7), in words [4]	other results
CCO[C@H](C[C@H](C(C)C)N(C)C(=O)[C@@H](NC(=O)[C@H]1CCCCN1C)[C@@H](C)CC)c1nc(C(=O)N[C@@H](Cc2ccccc2)C[C@H](C)C(=O)O)cs1 [Compound 41, (2S,4R)-4-(2-((1R,3R)-3-((2S,3S)—N,3-dimethyl-2-((R)-1-methylpiperidine-2-carboxamido)pentanamido)-1-ethoxy-4-methylpentyl)thiazole-4-carboxamido)-2-methyl-5-phenylpentanoic acid]	–	–	–	–	–	–	–	–	–	–	IC50 (Karpas299, ALCL [1]; Table 1 (examples), 96 hours): 0.05 nM; IC50 (L428, MDR + HL [2]; Table 1 (examples), 96 hours): 0.14 nM; IC50 (HL60, AML; Table 1 (examples), 96 hours): 0.05 nM; IC50 (HL60/RV, MDR + AML; Table 1 (examples), 96 hours): 5 nM; IC50 (L540cy, HL [3]; Table 1 (examples)): 0.05 nM; potency on each of the cell lines, in words ([4]; Table 1 (examples) cell lines, 96 hours): trended more potent
CC[C@H](C)[C@H](NC(=O)[C@H]1CCCC[N+]1(C)Cc1ccc(O[C@@H]2O[C@H](C(=O)O)[C@@H](O)[C@H](O)[C@H]2O)c(NC(=O)CCNC(=O)[C@H](CN)N2C(=O)C=CC2=O)c1)C(=O)N(C)[C@H](C[C@@H](OC)c1nc(C(=O)N[C@@H](Cc2ccccc2)C[C@H](C)C(=O)O)cs1)C(C)C (stereo partly drawn) [Compound 56, (2R)-1-(3-(3-((S)-3-amino-2-(2,5-dioxo-2,5-dihydro-1H-pyrrol-1-yl)propanamido)propanamido)-4-(((2S,3R,4S,5S,6S)-6-carboxy-3,4,5-trihydroxytetrahydro-2H-pyran-2-yl)oxy)benzyl)-2-(((2S,3S)-1-(((1R,3R)-1-(4-(((2R,4S)-4-carboxy-1-phenylpentan-2-yl)carbamoyl)thiazol-2-yl)-1-methoxy-4-methylpentan-3-yl)(methyl)amino)-3-methyl-1-oxopentan-2-yl)carbamoyl)-1-methylpiperidin-1-ium]	3 ng/mL	20 ng/mL	>1000 ng/mL	10 ng/mL	–	–	–	–	–	–	–
CCO[C@H](C[C@H](C(C)C)N(C)C(=O)[C@@H](NC(=O)[C@H]1CCCC[N+]1(C)Cc1ccc(O[C@@H]2O[C@H](C(=O)O)[C@@H](O)[C@H](O)[C@H]2O)c(NC(=O)CCNC(=O)[C@H](CCCCNC(=O)CCOCCOCCOCCOCCOCCOCCOCCOCCOCCOCCOCCOC)NC(=O)[C@H](CN)N2C(=O)C=CC2=O)c1)[C@@H](C)CC)c1nc(C(=O)N[C@@H](Cc2ccccc2)C[C@H](C)C(=O)O)cs1 (some centres unmarked) [Compound 66]	1 ng/mL	6 ng/mL	6 ng/mL	5 ng/mL	–	–	–	–	–	–	–
CCCO[C@H](C[C@H](C(C)C)N(C)C(=O)[C@@H](NC(=O)[C@H]1CCCC[N+]1(C)Cc1ccc(O[C@@H]2O[C@H](C(=O)O)[C@@H](O)[C@H](O)[C@H]2O)c(NC(=O)CCNC(=O)[C@H](CCCCNC(=O)CCOCCOCCOCCOCCOCCOCCOCCOCCOCCOCCOCCOC)NC(=O)[C@H](CN)N2C(=O)C=CC2=O)c1)[C@@H](C)CC)c1nc(C(=O)N[C@@H](Cc2ccccc2)C[C@H](C)C(=O)O)cs1 (some centres unmarked) [Compound 67]	4 ng/mL	12 ng/mL	>1000 ng/mL	10 ng/mL	–	–	–	–	–	–	–
CC[C@H](C)[C@H](NC(=O)[C@H]1CCCC[N+]1(C)Cc1ccc(O[C@@H]2O[C@H](C(=O)O)[C@@H](O)[C@H](O)[C@H]2O)c(NC(=O)CCNC(=O)[C@H](CCCCNC(=O)CCOCCOCCOCCOCCOCCOCCOCCOCCOCCOCCOCCOC)NC(=O)[C@H](CN)N2C(=O)C=CC2=O)c1)C(=O)N(C)[C@H](C[C@@H](OC(C)=O)c1nc(C(=O)N[C@@H](Cc2ccccc2)C[C@H](C)C(=O)O)cs1)C(C)C (some centres unmarked) [Compound 99]	0.3 ng/mL	2 ng/mL	0.5 ng/mL	2 ng/mL	–	–	–	–	–	–	IC50, DEL, ALCL (DEL, ALCL): 1 ng/mL
CC[C@H](C)[C@H](NC(=O)[C@H]1CCCCN1C)C(=O)N(C)[C@H](C[C@@H](OC(=O)CC(C)(C)C)c1nc(C(=O)N[C@@H](Cc2ccccc2)C[C@H](C)C(=O)O)cs1)C(C)C [Compound 137, (2S,4R)-4-(2-((1R,3R)-3-((2S,3S)—N,3-dimethyl-2-((R)-1-methylpiperidine-2-carboxamido)pentanamido)-1-((3,3-dimethylbutanoyl)oxy)-4-methylpentyl)thiazole-4-carboxamido)-2-methyl-5-phenylpentanoic acid]	–	–	–	–	0.18 nM	0.93 nM	0.7 nM	47 nM	0.7 nM	reduced potency	–
C=C(C)CO[C@H](C[C@H](C(C)C)N(C)C(=O)[C@@H](NC(=O)[C@H]1CCCCN1C)[C@@H](C)CC)c1nc(C(=O)N[C@@H](Cc2ccccc2)C[C@H](C)C(=O)O)cs1 [Compound 176, (2S,4R)-4-(2-((1R,3R)-3-((2S,3S)—N,3-dimethyl-2-((R)-1-methylpiperidine-2-carboxamido)pentanamido)-4-methyl-1-((2-methylallyl)oxy)pentyl)thiazole-4-carboxamido)-2-methyl-5-phenylpentanoic acid]	–	–	–	–	0.12 nM	0.12 nM	0.07 nM	6 nM	0.06 nM	comparable potency	–
C=CCO[C@H](C[C@H](C(C)C)N(C)C(=O)[C@@H](NC(=O)[C@H]1CCCCN1C)[C@@H](C)CC)c1nc(C(=O)N[C@@H](Cc2ccccc2)C[C@H](C)C(=O)O)cs1 [Compound 177, (2S,4R)-4-(2-((1R,3R)-1-(allyloxy)-3-((2S,3S)—N,3-dimethyl-2-((R)-1-methylpiperidine-2-carboxamido)pentanamido)-4-methylpentyl)thiazole-4-carboxamido)-2-methyl-5-phenylpentanoic acid]	–	–	–	–	0.02 nM	0.15 nM	0.1 nM	9 nM	0.12 nM	comparable potency	–
C#CCO[C@H](C[C@H](C(C)C)N(C)C(=O)[C@@H](NC(=O)[C@H]1CCCCN1C)[C@@H](C)CC)c1nc(C(=O)N[C@@H](Cc2ccccc2)C[C@H](C)C(=O)O)cs1 [Compound 178, (2S,4R)-4-(2-((1R,3R)-3-((2S,3S)—N,3-dimethyl-2-((R)-1-methylpiperidine-2-carboxamido)pentanamido)-4-methyl-1-(prop-2-yn-1-yloxy)pentyl)thiazole-4-carboxamido)-2-methyl-5-phenylpentanoic acid]	–	–	–	–	0.05 nM	0.41 nM	0.2 nM	27 nM	0.17 nM	attenuated in potency	–
CC[C@H](C)[C@H](NC(=O)[C@H]1CCCCN1C)C(=O)N(C)[C@H](C[C@@H](OCc1ccccc1)c1nc(C(=O)N[C@@H](Cc2ccccc2)C[C@H](C)C(=O)O)cs1)C(C)C [Compound 179, (2S,4R)-4-(2-((1R,3R)-1-(benzyloxy)-3-((2S,3S)—N,3-dimethyl-2-((R)-1-methylpiperidine-2-carboxamido)pentanamido)-4-methylpentyl)thiazole-4-carboxamido)-2-methyl-5-phenylpentanoic acid]	–	–	–	–	0.08 nM	0.57 nM	0.4 nM	24 nM	0.4 nM	attenuated in potency	–

From patent publication US11793880B2, “Conjugates of quaternized tubulysin compounds” (Seagen Inc., priority 2015, dated 2023)
